{"source": "patent US20090131513A1", "about": "“ANTI-INFLAMMATORY MODALITIES” (Novogen Research Pty Ltd., priority 2005, published 2009)", "key": {"[1]": {"system": "DSS-induced colitis", "assay": "Murine model of DSS-induced colitis", "type": "in vivo, mice (BALB/c)", "conditions": "for maximum mean weight loss: vehicle 5%; for day at which clinical signs became evident: vehicle day 5; for colitis, in words: Experiment 1, 1 mg/kg throughout until day 17; for mean clinical score compared with vehicle, in words: Experiment 1, day 11; for day of switch from mean body weight loss to mean body weight gain: Experiment 1, vehicle day 15; for inflammation, in words: Experiment 2, 1 mg/kg for 10 days prior to DSS only; for colonic inflammation, in words: series of experiments, 1.0-1.25 mg/kg single oral dose per day", "method": "Female BALB/c mice, 6-7 weeks old, were housed for a minimum of one week before any experimental work began. To induce colitis, dextran sulphate sodium (DSS—molecular weight 40 kD, TdB Consultancy AB, Uppsala, Sweden (Dieleman et al. 1994), was administered fresh daily in the drinking water at a concentration of 4.5-5% for 5 days (Okayasu et al. 1990), after which water alone was given. This regime induced mild colitis, evidenced by diarrhea and rectal bleeding, the severity of which was scored, as well as a reduction in the length of the colon. Histologically, colonic inflammation was evidenced by ulceration and an infiltration of neutrophils into the mucosa, which was also scored. The systemic effect of the colitis causes weight loss, which was also monitored.\nEither vehicle (PEG 400:PBS1:1) Compounds 1 or 4 were administered at a dose rate of 1 mg/kg throughout the experiment until the mice were killed at day 17.\nEither Compounds 1 and 2, at a dose of 1 mg/kg or vehicle were administered for 10 days prior to DSS being added to the drinking water to induce colitis, after which test compound was stopped. DSS was administered for 5 days and the mice killed 8 days later (day 23).\nEither the cis or the trans isomers of Compound 3 (Compound 3a and 3b respectively) at 1.25 mg/kg or vehicle were administered throughout the experiment until the mice were killed at day 17."}, "[2]": {"system": "inflammed rat air pouches (serum-treated zymozan)", "assay": "Rat air pouch assay", "type": "in vivo, rats (Dark Agouti)", "conditions": "0.5 ml of 100 μM into pouch; for Polymorphs in tissue sections (per 100 squares): 4 h; for Leucocytes in lavage fluid (×10^−7): lavage at 4 h", "method": "An alternative assay used to measure anti-inflammatory efficacy is the air pouch model which involves the repeated subcutaneous injection of air into the dorsum of rats followed 24 h later by the intrapouch injection of an inflammatory stimulus (Gilroy et al. 1998).\nAir pouches were raised on the dorsum of female Dark Agouti rats, approximately 7 weeks of age. To promote the formation of a cellular membrane lining the inside of each pouch, the pouches were maintained by re-inflating on days 2 and 5 after the initial injection of air. On re-inflation, the pouch was first deflated to ensure the needle was positioned correctly, before being re-inflated with 2 mL of sterile air. Using this protocol, the pouches remained inflated until use on day 7, when they were injected with 0.5 ml of either test compound at 100 μM or vehicle control. After 15 min, air pouches were injected with serum-treated zymozan (STZ-500 μg). Lavage of the air pouch (4×2 ml lavages) was performed at 4 h and leucocytes counted, after which the rats were killed, the air pouch excised and processed in formalin for histology. The sections were blinded to the person counting. Using a graticule with 100 squares and the 40× objective, the number of polymorphs were counted in the pouch lining at 10 different and non-adjacent sites. Group sizes were 5-6 rats. Data were analysed for statistical significance within each experiment and using an unpaired t test."}, "[3]": {"target": "T1, TX synthase (TXS) (Homo sapiens, UniProt P24557)", "T1 construct": "endogenous in cells; host or cells: undifferentiated U937 cells", "T1 sequence (P24557 1-533)": "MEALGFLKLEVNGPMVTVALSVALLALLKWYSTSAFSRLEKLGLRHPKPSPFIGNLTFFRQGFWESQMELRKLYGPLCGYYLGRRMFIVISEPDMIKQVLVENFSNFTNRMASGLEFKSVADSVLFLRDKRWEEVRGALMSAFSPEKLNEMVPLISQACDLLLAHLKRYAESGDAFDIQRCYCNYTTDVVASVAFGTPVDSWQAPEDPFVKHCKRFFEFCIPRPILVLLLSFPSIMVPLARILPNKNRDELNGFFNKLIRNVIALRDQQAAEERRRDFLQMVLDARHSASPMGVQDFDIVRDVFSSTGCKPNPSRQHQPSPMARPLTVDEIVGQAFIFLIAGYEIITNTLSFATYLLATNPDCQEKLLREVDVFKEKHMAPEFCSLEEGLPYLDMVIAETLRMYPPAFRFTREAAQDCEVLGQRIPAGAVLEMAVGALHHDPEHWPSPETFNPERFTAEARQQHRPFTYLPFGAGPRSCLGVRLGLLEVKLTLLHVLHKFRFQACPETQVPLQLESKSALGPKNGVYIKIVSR", "assay": "TXB2 synthesis following addition of exogenous PGH2 to U937 cells", "type": "cell-based", "conditions": "1, 10, 100 μM, undifferentiated U937 cells, PGH2 5 μM", "method": "To examine effects of test compounds directly on TX synthase (TXS), a different assay system was used. Whereas arachidonic acid (AA) is the substrate for COX, PGH2 is the substrate for TX synthase. To examine directly the effect of these compounds on TXS, exogenous ? elow:\nTest compounds at 0 μM, 1 μM, 10 μM and 100 μM (in DMSO) were incubated with undifferentiated U937 cells (6×10^6/ml) for 30 min at 37° C., after which PGH2 (5 μM) was added. After incubation for 10 min, the reaction was terminated by centrifugation and the supernatants were collected and TXB2 production was measured in triplicate by RIA. ANOVA followed by Newman-Keuls multiple comparisons test was used to examine differences between doses and the control values. A statistical significance level of 0.05 was used and differences from control values are indicated by an asterisk (*)."}, "[4]": {"system": "UV irradiation-induced skin oedema", "assay": "Murine model of UV irradiation-induced skin oedema", "type": "in vivo, mice (Skh:hr-1 albino)", "conditions": "for Increase in skin thickness (mean ± SD, ×0.01 mm): topical 0.2 ml of 20 μM at 30 min, 2 h, 4 h; for skin oedema, in words: 48 hrs, topical", "description": "Groups of 4-5 female Skh:hr-1 albino mice were irradiated with 1×3 MEdD (minimal edematous dose) of solar simulated UV radiation (SSUV). Solar-simulated ultraviolet radiation (SSUV) was provided by a planar bank of 6 UVA tube (Hitachi 40 W F40 T 10/BL, black light) and one UVB tube (Philips TL 40 W/12 RS) with radiation filtered through a sheet of 0.125 mm cellulose acetate (Eastman Chemical Products, Kingport, Term, USA) to give 2.96×10-4 W/cm2 UVA and 1.59×10-5 W/cm2 UVB. During irradiation, the cages were rotated below the lights to reduce the variation in radiation intensity in different positions.\nEither test compound (0.2 ml of a 20 μM solution) or vehicle (propylene glycol/ethanol/water 1:2:1) was applied to the irradiated dorsal skin at 30 min, 2 h and 4 h post-irradiation. Dorsal skin fold measurements were made with a spring micrometer prior to and at 24 hr and 48 h post-UV exposure. The difference in skin thickness pre- and post-exposure to UVR was calculated for each mouse, and the differences examined between test compound and vehicle control were analysed using an unpaired two-tailed t test."}}}
{"smiles": "O=C1c2ccc(O)c(Br)c2OCC1c1ccc(O)cc1", "note": "(centres unmarked) [Compound 1, 3-(4-hydroxyphenyl)-7-hydroxy-8-bromo-chroman-4-one]", "values": [{"measurement": "comparative anti-inflammatory activity between test compounds", "setting": "[1]; Experiment 1, 1 mg/kg", "value": "better anti-inflammatory activity"}, {"measurement": "colon length compared with vehicle (trend), in words", "setting": "[1]; Experiment 1, 1 mg/kg oral", "value": "longer"}, {"measurement": "mean histology scores, in words", "setting": "[1]; Experiment 1, 1 mg/kg oral", "value": "less colitis"}, {"measurement": "ulceration of the colonic epithelium compared with vehicle", "setting": "[1]; Experiment 1, 1 mg/kg oral", "value": "statistically significant (p=0.0135) less ulceration"}, {"measurement": "maximum mean weight loss", "setting": "[1]; Experiment 1, 1 mg/kg oral", "value": 2, "unit": "%"}, {"measurement": "day at which clinical signs became evident", "setting": "[1]; Experiment 1, 1 mg/kg oral", "value": 6, "unit": "days"}, {"measurement": "colitis, in words", "setting": "[1]", "value": "decreased colitis"}, {"measurement": "mean clinical score compared with vehicle, in words", "setting": "[1]", "value": "significantly lower"}, {"measurement": "day of switch from mean body weight loss to mean body weight gain", "setting": "[1]", "value": 10, "unit": "days"}, {"measurement": "inflammation, in words", "setting": "[1]", "value": "Inflammation was reduced"}, {"measurement": "colon length versus control group not given DSS", "setting": "[1]; Experiment 2, pre-dosed 1 mg/kg", "value": "not statistically different in length from those of the control group"}, {"measurement": "colonic inflammation, in words", "setting": "[1]", "value": "reduced colonic inflammation"}, {"measurement": "Polymorphs in tissue sections (per 100 squares)", "setting": "[2]", "value": "31.0 ± 7.25", "unit": "per 100 squares"}, {"measurement": "Leucocytes in lavage fluid (×10^−7)", "setting": "[2]", "value": "0.89 ± 0.42 ×10^−7"}, {"measurement": "thromboxane synthase inhibition (TXB2 synthesis after exogenous PGH2), selectivity in words", "setting": "[3]", "value": "selective thromboxane synthase inhibitors"}, {"measurement": "Increase in skin thickness (mean ± SD, ×0.01 mm)", "setting": "[4]; 24 hrs post-irradiation", "value": "54 ± 20", "unit": "×0.01 mm"}, {"measurement": "Increase in skin thickness (mean ± SD, ×0.01 mm)", "setting": "[4]; 48 hrs post-irradiation", "value": "91 ± 7.6", "unit": "×0.01 mm"}, {"measurement": "skin oedema, in words", "setting": "[4]", "value": "significantly inhibited"}]}
{"smiles": "Oc1ccc(C2COc3c(ccc(O)c3O)C2O)cc1", "note": "(centres unmarked) [Compound 2]", "values": [{"measurement": "inflammation, in words", "setting": "[1]", "value": "Inflammation was reduced"}, {"measurement": "body weight versus vehicle", "setting": "[1]; Experiment 2, day 22", "value": "weighed significantly more than those receiving vehicle (p=0.0291)"}, {"measurement": "body weight loss associated with DSS-induced colonic inflammation", "setting": "[1]; Experiment 2, pre-dosed 1 mg/kg for 10 days", "value": "reduced the body weight loss"}, {"measurement": "colonic inflammation, in words", "setting": "[1]", "value": "reduced colonic inflammation"}, {"measurement": "Polymorphs in tissue sections (per 100 squares)", "setting": "[2]", "value": "14.3 ± 5.7", "unit": "per 100 squares"}, {"measurement": "Leucocytes in lavage fluid (×10^−7)", "setting": "[2]", "value": "0.68 ± 0.36 ×10^−7"}, {"measurement": "thromboxane synthase inhibition (TXB2 synthesis after exogenous PGH2), selectivity in words", "setting": "[3]", "value": "selective thromboxane synthase inhibitors"}, {"measurement": "Increase in skin thickness (mean ± SD, ×0.01 mm)", "setting": "[4]; 24 hrs post-irradiation", "value": "68 ± 24", "unit": "×0.01 mm"}, {"measurement": "Increase in skin thickness (mean ± SD, ×0.01 mm)", "setting": "[4]; 48 hrs post-irradiation", "value": "105 ± 22", "unit": "×0.01 mm"}, {"measurement": "skin oedema, in words", "setting": "[4]", "value": "significantly inhibited"}]}
{"smiles": "O=C1c2cc(Cl)c(O)cc2OCC1c1ccc(O)cc1", "note": "(centres unmarked) [Compound 4]", "values": [{"measurement": "colon length compared with vehicle (trend), in words", "setting": "[1]; Experiment 1, 1 mg/kg oral", "value": "longer"}, {"measurement": "mean histology scores, in words", "setting": "[1]; Experiment 1, 1 mg/kg oral", "value": "less colitis"}, {"measurement": "maximum mean weight loss", "setting": "[1]; Experiment 1, 1 mg/kg oral", "value": 1, "unit": "%"}, {"measurement": "day at which clinical signs became evident", "setting": "[1]; Experiment 1, 1 mg/kg oral", "value": 6, "unit": "days"}, {"measurement": "colitis, in words", "setting": "[1]", "value": "decreased colitis"}, {"measurement": "mean clinical score compared with vehicle, in words", "setting": "[1]", "value": "significantly lower"}, {"measurement": "day of switch from mean body weight loss to mean body weight gain", "setting": "[1]", "value": 12, "unit": "days"}, {"measurement": "colonic inflammation, in words", "setting": "[1]", "value": "reduced colonic inflammation"}, {"measurement": "Polymorphs in tissue sections (per 100 squares)", "setting": "[2]", "value": "23.4 ± 8.8", "unit": "per 100 squares"}, {"measurement": "Leucocytes in lavage fluid (×10^−7)", "setting": "[2]", "value": "1.00 ± 0.38 ×10^−7"}, {"measurement": "thromboxane synthase inhibition (TXB2 synthesis after exogenous PGH2), selectivity in words", "setting": "[3]", "value": "selective thromboxane synthase inhibitors"}, {"measurement": "Increase in skin thickness (mean ± SD, ×0.01 mm)", "setting": "[4]; 24 hrs post-irradiation", "value": "63 ± 22", "unit": "×0.01 mm"}, {"measurement": "Increase in skin thickness (mean ± SD, ×0.01 mm)", "setting": "[4]; 48 hrs post-irradiation", "value": "145 ± 11", "unit": "×0.01 mm"}]}
